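Five compound concentrations were applied to cells in 96-well plates for 48 hours; endpoints were derived by simple linear interpolation of the resulting dose-response curve. Here, GI50 denotes the concentration required for 50% inhibition of growth.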 The source made the active and inactive calls. No stated cut-off is given here; in the data, active = GI50 up to about 1.1 µM and inactive = higher.
How the values were obtained:
Experiment in all cases: NCI tumour cell line growth inhibition, 48 h
[1] = tested on: 786-0
[2] = tested on: A498
[3] = tested on: A549
[4] = tested on: ACHN
[5] = tested on: BT-549
[6] = tested on: CAKI-1
[7] = tested on: COLO 205
[8] = tested on: DU-145
[9] = tested on: EKVX
[10] = tested on: HCC 2998
[11] = tested on: HCT-116
[12] = tested on: HCT-15
[13] = tested on: HL-60
[14] = tested on: HOP-62
[15] = tested on: HOP-92
[16] = tested on: HT-29
[17] = tested on: Hs-578T
[18] = tested on: IGROV-1
[19] = tested on: KM12
[20] = tested on: LOX IMVI
[21] = tested on: M14
[22] = tested on: MCF7
[23] = tested on: MDA-MB-231
[24] = tested on: MDA-MB-435
[25] = tested on: MDA-N
[26] = tested on: MOLT-4
[27] = tested on: Malme-3M
[28] = tested on: NCI-H226
[29] = tested on: NCI-H23
[30] = tested on: NCI-H460
[31] = tested on: NCI-H522
[32] = tested on: NCI/ADR-RES
[33] = tested on: OVCAR-3
[34] = tested on: OVCAR-4
[35] = tested on: OVCAR-5
[36] = tested on: OVCAR-8
[37] = tested on: PC-3
[38] = tested on: RPMI-8226
[39] = tested on: RXF 393
[40] = tested on: SF-268
[41] = tested on: SF-295
[42] = tested on: SF-539
[43] = tested on: SK-MEL-28
[44] = tested on: SK-MEL-2
[45] = tested on: SK-OV-3
[46] = tested on: SN12C
[47] = tested on: SNB-19
[48] = tested on: SNB-75
[49] = tested on: SW-620
[50] = tested on: T47D
[51] = tested on: TK-10
[52] = tested on: U-251
[53] = tested on: UACC-257
[54] = tested on: UACC-62
[55] = tested on: UO-31
[56] = tested on: CCRF-CEM
[57] = tested on: K562
[58] = tested on: SK-MEL-5
[59] = tested on: SR

With `CCCCSC1=N/C(=C\c2ccccc2O)C(Cl)=N1` the GI50 [1] was > 100 µM (inactive), the GI50 [2] was > 100 µM (inactive) and the GI50 [3] was > 100 µM (inactive). For the same compound, the GI50 [4] was > 100 µM (inactive), the GI50 [5] was > 100 µM (inactive) and the GI50 [6] was > 100 µM (inactive). The GI50 [7] was > 100 µM (inactive), the GI50 [8] was > 100 µM (inactive) and the GI50 [9] was > 100 µM (inactive). The GI50 [10] was > 100 µM (inactive), the GI50 [11] was > 100 µM (inactive) and the GI50 [12] was > 100 µM. For the same compound, the GI50 [13] was > 100 µM (inactive), the GI50 [14] was > 100 µM (inactive) and the GI50 [15] was > 100 µM (inactive). For the same compound, the GI50 [16] was > 100 µM (inactive), the GI50 [17] was > 100 µM (inactive) and the GI50 [18] was > 100 µM (inactive). The GI50 [19] was > 100 µM (inactive), the GI50 [20] was > 100 µM (inactive) and the GI50 [21] was > 100 µM (inactive). For the same compound, the GI50 [22] was > 100 µM (inactive), the GI50 [23] was > 100 µM (inactive) and the GI50 [24] was > 100 µM (inactive). The GI50 [25] was > 100 µM (inactive), the GI50 [26] was > 100 µM (inactive) and the GI50 [27] was > 100 µM (inactive). The GI50 [28] was > 100 µM (inactive), the GI50 [29] was > 100 µM (inactive) and the GI50 [30] was > 100 µM (inactive). The GI50 [31] was > 100 µM (inactive), the GI50 [32] was > 100 µM (inactive) and the GI50 [33] was > 100 µM (inactive). The GI50 [34] was > 100 µM (inactive), the GI50 [35] was > 100 µM (inactive) and the GI50 [36] was > 100 µM (inactive). For the same compound, the GI50 [37] was > 100 µM (inactive), the GI50 [38] was > 100 µM (inactive) and the GI50 [39] was > 100 µM (inactive). The GI50 [40] was > 100 µM (inactive), the GI50 [41] was > 100 µM (inactive) and the GI50 [42] was > 100 µM (inactive). For the same compound, the GI50 [43] was > 100 µM (inactive), the GI50 [44] was > 100 µM (inactive) and the GI50 [45] was > 100 µM (inactive). The GI50 [46] was > 100 µM (inactive), the GI50 [47] was > 100 µM (inactive) and the GI50 [48] was > 100 µM (inactive). For the same compound, the GI50 [49] was > 100 µM (inactive), the GI50 [50] was > 100 µM (inactive) and the GI50 [51] was > 100 µM (inactive). The GI50 [52] was > 100 µM (inactive), the GI50 [53] was > 100 µM (inactive) and the GI50 [54] was > 100 µM (inactive). For the same compound, the GI50 [55] was > 100 µM (inactive).

`C=C1CN(C2=NCCO2)C1` was tested, and the GI50 [1] was > 100 µM (inactive), the GI50 [3] was > 100 µM (inactive) and the GI50 [4] was > 100 µM (inactive). For the same compound, the GI50 [5] was > 100 µM (inactive), the GI50 [6] was > 100 µM (inactive) and the GI50 [56] was > 100 µM (inactive). The GI50 [7] was > 100 µM (inactive), the GI50 [8] was > 100 µM (inactive) and the GI50 [9] was > 100 µM (inactive). The GI50 [10] was > 100 µM (inactive), the GI50 [11] was > 100 µM (inactive) and the GI50 [12] was > 100 µM. For the same compound, the GI50 [13] was > 100 µM (inactive), the GI50 [14] was > 100 µM (inactive) and the GI50 [15] was > 100 µM (inactive). For the same compound, the GI50 [16] was > 100 µM (inactive), the GI50 [17] was > 100 µM (inactive) and the GI50 [18] was > 100 µM (inactive). The GI50 [57] was > 100 µM (inactive), the GI50 [19] was > 100 µM (inactive) and the GI50 [20] was > 100 µM (inactive). For the same compound, the GI50 [21] was > 100 µM (inactive), the GI50 [22] was > 100 µM (inactive) and the GI50 [23] was > 100 µM (inactive). The GI50 [24] was > 100 µM (inactive), the GI50 [25] was > 100 µM (inactive) and the GI50 [26] was > 100 µM (inactive). The GI50 [27] was > 100 µM (inactive), the GI50 [28] was > 100 µM (inactive) and the GI50 [29] was > 100 µM (inactive). The GI50 [30] was > 100 µM (inactive), the GI50 [32] was > 100 µM (inactive) and the GI50 [33] was > 100 µM (inactive). For the same compound, the GI50 [34] was > 100 µM (inactive), the GI50 [35] was > 100 µM (inactive) and the GI50 [36] was > 100 µM (inactive). For the same compound, the GI50 [37] was > 100 µM (inactive), the GI50 [38] was > 100 µM (inactive) and the GI50 [39] was > 100 µM (inactive). The GI50 [40] was > 100 µM (inactive), the GI50 [41] was > 100 µM (inactive) and the GI50 [42] was > 100 µM (inactive). For the same compound, the GI50 [43] was > 100 µM (inactive), the GI50 [44] was > 100 µM (inactive) and the GI50 [58] was > 100 µM (inactive). For the same compound, the GI50 [46] was > 100 µM (inactive), the GI50 [47] was > 100 µM (inactive) and the GI50 [48] was > 100 µM (inactive). For the same compound, the GI50 [59] was > 100 µM (inactive), the GI50 [49] was > 100 µM (inactive) and the GI50 [50] was > 100 µM (inactive). The GI50 [51] was > 100 µM (inactive), the GI50 [53] was > 100 µM (inactive) and the GI50 [54] was > 100 µM (inactive). For the same compound, the GI50 [55] was > 100 µM (inactive).

For `CC(=O)NC1C(OCc2ccccc2)OC(CO)C(O)C1OCC(=O)N1CCCC1C(=O)N[C@@H](CCC(=O)NCCNCCNc1c2ccccc2nc2cccc([N+](=O)[O-])c12)C(N)=O` (stereo partly drawn), the GI50 [1] was 2.14 µM (inactive), the GI50 [2] was 1.04 µM (active) and the GI50 [3] was 1.52 µM (inactive). For the same compound, the GI50 [4] was 2.11 µM (inactive), the GI50 [5] was 4.82 µM (inactive) and the GI50 [6] was 1.94 µM (inactive). The GI50 [56] was 1.69 µM (inactive), the GI50 [7] was 1.88 µM (inactive) and the GI50 [8] was 0.968 µM (active). The GI50 [9] was 7.57 µM (inactive), the GI50 [10] was 2.67 µM (inactive) and the GI50 [11] was 0.979 µM (active). The GI50 [12] was 2.11 µM, the GI50 [13] was 3.78 µM (inactive) and the GI50 [14] was 2.54 µM (inactive). The GI50 [15] was 1.37 µM (inactive), the GI50 [16] was 1.46 µM (inactive) and the GI50 [17] was 3.89 µM (inactive). For the same compound, the GI50 [18] was 2.56 µM (inactive), the GI50 [57] was 0.655 µM (active) and the GI50 [19] was 3.46 µM (inactive). The GI50 [20] was 4.55 µM (inactive), the GI50 [21] was 2.92 µM (inactive) and the GI50 [22] was 0.724 µM (active). The GI50 [23] was 2.5 µM (inactive), the GI50 [24] was 2.65 µM (inactive) and the GI50 [25] was 2.88 µM (inactive). The GI50 [26] was 1.33 µM (inactive), the GI50 [27] was 2.57 µM (inactive) and the GI50 [28] was 5.6 µM (inactive). For the same compound, the GI50 [29] was 2.51 µM (inactive), the GI50 [30] was 0.849 µM (active) and the GI50 [31] was 1.45 µM (inactive). The GI50 [32] was 7.45 µM (inactive), the GI50 [33] was 5.65 µM (inactive) and the GI50 [34] was 3.91 µM (inactive). For the same compound, the GI50 [35] was 6.81 µM (inactive), the GI50 [36] was 2.19 µM (inactive) and the GI50 [37] was 2.94 µM (inactive). For the same compound, the GI50 [38] was 0.37 µM (active), the GI50 [39] was 2.17 µM (inactive) and the GI50 [40] was 2.41 µM (inactive). For the same compound, the GI50 [41] was 5.33 µM (inactive), the GI50 [42] was 3.27 µM (inactive) and the GI50 [43] was 6.68 µM (inactive). For the same compound, the GI50 [44] was 3.67 µM (inactive), the GI50 [58] was 1.48 µM (inactive) and the GI50 [45] was 10.4 µM (inactive). The GI50 [46] was 1.39 µM (inactive), the GI50 [47] was 5.5 µM (inactive) and the GI50 [48] was 6.64 µM (inactive). For the same compound, the GI50 [49] was 1.31 µM (inactive), the GI50 [50] was 5.78 µM (inactive) and the GI50 [51] was 4.27 µM (inactive). For the same compound, the GI50 [52] was 2.44 µM (inactive), the GI50 [53] was 6.28 µM (inactive) and the GI50 [54] was 5.24 µM (inactive). The GI50 [55] was 3.75 µM (inactive).

Reference: ChEMBL document CHEMBL1201862, “PubChem BioAssay data set” (2004)
